Measured values published in patent US20260217686A1, “N-Myristoyltransferase Inhibitors And Methods Of Use” (Seattle Children's Hospital (d/b/a Seattle Children's …, priority 2022, published 2026).
Like-named read-outs stand apart in the source and are kept apart here.

What was measured:
PvNMT = target: T1, PvNMT (Plasmodium vivax, UniProt A5K1A2); assay: biochemical; type: biochemical
T1 construct: Gly-Pro stays on the protein after cleavage) (N, cleaved yes); host or cells: E. coli Rosetta 2 (DE3) pRARE
T1 sequence (A5K1A2 entry or part of it): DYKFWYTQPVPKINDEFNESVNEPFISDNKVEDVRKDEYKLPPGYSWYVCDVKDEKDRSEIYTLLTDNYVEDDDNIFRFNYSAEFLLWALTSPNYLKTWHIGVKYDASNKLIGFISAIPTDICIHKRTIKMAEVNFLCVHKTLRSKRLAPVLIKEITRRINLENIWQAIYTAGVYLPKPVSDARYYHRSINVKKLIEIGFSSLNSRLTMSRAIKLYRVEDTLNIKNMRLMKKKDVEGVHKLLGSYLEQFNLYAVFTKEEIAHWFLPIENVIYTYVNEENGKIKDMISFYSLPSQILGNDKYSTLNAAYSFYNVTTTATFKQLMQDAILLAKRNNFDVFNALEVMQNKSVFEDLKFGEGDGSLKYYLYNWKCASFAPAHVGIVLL
From the text: NMT activity was indirectly measured through the detection of free CoA by the thiol-reactive probe 7-diethylamino-3-(4′-maleimidylphenyl)-4-methylcoumarin (CPM).
This study aimed to identify NMT is with high selectivity for the P. vivax enzyme compared with human NMTs and high potency against the different stages of the P. vivax parasite. For this purpose, a structure-guided approach was applied using previously reported NMT inhibitors as scaffolds to develop a new generation of PvNMT-targeting compounds. The NMT activity of these inhibitors was first measured using biochemical assays through the detection of free CoA by the thiol-reactive probe 7-diethylamino-3-(4′-maleimidylphenyl)-4-methylcoumarin (CPM). Their antiparasitic activity were further evaluated by measuring blood-stage parasite load and inhibition of P. vivax liver-stage schizont and hypnozoite infection. […] Cytotoxicity was assessed in the human hepatoma HepG2 cell line. Synchronized P. falciparum NF54 ring-stage parasites were used for measuring blood-stage parasite load. […] In vitro experiments were repeated at least twice. A single concentration of each inhibitor was initially used to evaluate the inhibition of P. vivax liver stage schizont and hypnozoite infection, followed by the determination of the dose-response relationship.
To measure the activity of the purified PvNMT an assay was adapted from the literature. […] Working stock solutions were made fresh adding DMSO for final concentrations of either 1% or 5% DMSO. […] The plate was incubated for 30 min at room temperature. The enzymatic reaction was initiated by adding 50 μL of reaction substrate containing 10 µM myrCoA and PfARF, as well as 8 μM CPM. Fluorescent readings were taken on a Spectra M2 plate reader (Molecular Devices) with excitation at 385 nm and emission at 485 nm. Fluorescent intensity was measured continuously in one-minute intervals for 45 minutes. Background fluorescence and noise were determined by replacing each constituent of the reaction individually with assay buffer containing 1% DMSO and values were deducted from experimental samples. The enzymatic reactions were set up with varying pHs (6.0-8.5) of the assay buffer to determine optimal reaction conditions with minimal background and off target reactions. In lieu of compound, 10 μL of 10% DMSO/H2O was added to each well. Fluorescence signal was obtained continuously for 45 min. […] IC50 calculations were calculated using Prism (GraphPad Software, Inc).

HsNMT1 = target: T2, HsNMT1 (Homo sapiens, UniProt P30419); assay: NMT activity assay (CPM detection of free CoA), human NMT; type: biochemical; conditions: read-out: HsNMT IC50 (nM)*
T2 construct: made in house
T2 sequence (P30419 1-496): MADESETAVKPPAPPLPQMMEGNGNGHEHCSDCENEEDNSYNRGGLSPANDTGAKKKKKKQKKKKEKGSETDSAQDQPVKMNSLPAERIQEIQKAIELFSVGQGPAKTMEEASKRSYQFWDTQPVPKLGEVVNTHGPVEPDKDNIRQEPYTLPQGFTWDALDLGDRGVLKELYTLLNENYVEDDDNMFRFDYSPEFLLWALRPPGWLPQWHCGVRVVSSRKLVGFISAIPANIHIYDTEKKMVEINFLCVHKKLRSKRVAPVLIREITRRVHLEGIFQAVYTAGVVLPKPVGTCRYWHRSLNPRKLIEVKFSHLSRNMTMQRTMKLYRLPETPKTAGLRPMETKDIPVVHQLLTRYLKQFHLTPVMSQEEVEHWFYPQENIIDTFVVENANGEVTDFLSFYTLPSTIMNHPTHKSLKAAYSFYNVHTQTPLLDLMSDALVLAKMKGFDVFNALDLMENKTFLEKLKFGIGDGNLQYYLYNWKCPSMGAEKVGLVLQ

[1] = Table 1, enzyme selectivity calculated as HsNMT IC50/PvNMT IC50
[2] = Table 1, mean values of two or more determinations

Row | Compound | IC50 (PvNMT; [2]) | IC50 (PvNMT; Table 2) | also measured
1 | Cc1nn(C)c(C)c1CCOc1cc(F)ccc1-c1cc(N2CCNCC2)ncn1 [Compound 16b, 4-(4-fluoro-2-(2-(1,3,5-trimethyl-1H-pyrazol-4-yl)ethoxy)phenyl)-6-(piperazin-1-yl)pyrimidine] | 168 nM | – | SI** (PvNMT; [1]): 164.4; selectivity index (SI) (PvNMT; ratio of IC50 values for HsNMT1 and PvNMT): 164; IC50 (HsNMT1; [2]): 27600 nM
2 | Cc1nn(C)c(C)c1CCOc1ccc2ccccc2c1-c1cccc(OCCN(C)C)c1 [Compound 30b, N,N-dimethyl-2-(3-(2-(2-(1,3,5-trimethyl-1H-pyrazol-4-yl)ethoxy)naphthalen-1-yl)phenoxy)ethan-1-amine] | – | 19800 nM | –
3 | CN(C)CCOc1cccc(-c2ccccc2OCCc2cccnc2)c1 [Compound 26e, N,N-dimethyl-2-((2′-(2-(pyridin-3-yl)ethoxy)-[1,1′-biphenyl]-3-yl)oxy)ethan-1-amine] | – | 12800 nM | –
4 | CN(C)CCOc1cccc(-c2ccc(F)cc2OCCc2cccnc2)c1 [Compound 26f, 2-((4′-fluoro-2′-(2-(pyridin-3-yl)ethoxy)-[1,1′-biphenyl]-3-yl)oxy)-N,N-dimethylethan-1-amine] | – | 622 nM | SI** (PvNMT; Table 2, HsNMT IC50/PvNMT IC50): 62.3; IC50 (HsNMT1; Table 2): > 40000 nM
5 | c1cncc(CCOc2ccccc2-c2cc(N3CCNCC3)ncn2)c1 [Compound 16c, 4-(piperazin-1-yl)-6-(2-(2-(pyridine-3-yl)ethoxy)phenyl)pyrimidine] | > 40000 nM | – | –
6 | Cc1n[nH]c(C)c1CCOc1cccnc1-c1cccc(OCCN(C)C)c1 [Compound 26g, 2-(3-(3-(2-(3,5-dimethyl-1H-pyrazol-4-yl)ethoxy)pyridin-2-yl)phenoxy)-N,N-dimethylethan-1-amine] | – | 19400 nM | –
7 | c1cncc(CCOc2cccnc2-c2ccnc(N3CCNCC3)c2)c1 [Compound 12h, 2′-(piperazin-1-yl)-3-(2-(pyridin-3-yl)ethoxy)-2,4′-bipyridine] | 441 nM | – | SI** (PvNMT; [1]): 90.9; IC50 (HsNMT1; [2]): > 40000 nM
8 | Cc1n[nH]c(C)c1CCOc1ccc2ccccc2c1-c1ccnc(N2CCNCC2)c1 [Compound 30e, 1-(4-(2-(2-(3,5-dimethyl-1H-pyrazol-4-yl)ethoxy)naphthalen-1-yl)pyridin-2-yl)piperazine] | – | 2880 nM | –
9 | c1cncc(CCOc2ccccc2-c2ccnc(N3CCNCC3)c2)c1 [Compound 12j, 1-(4-(2-(2-(pyridin-3-yl)ethoxy)phenyl)pyridin-2-yl)piperazine] | 124 nM | – | SI** (PvNMT; [1]): 220.6; IC50 (HsNMT1; [2]): 27400 nM
10 | CN(C)CCOc1cccc(-c2c(OCCc3cccnc3)ccc3ccccc23)c1 [Compound 30d, N,N-dimethyl-2-(3-(2-(2-(pyridin-3-yl)ethoxy)naphthalen-1-yl)phenoxy)ethan-1-amine] | – | 7210 nM | –
11 | Cc1n[nH]c(C)c1CCOc1cccnc1-c1cccc(N2CCNCC2)c1 [Compound 12m, 1-(3-(3-(2-(3,5-dimethyl-1H-pyrazol-4-yl)ethoxy)pyridin-2-yl)phenyl)piperazine] | 12500 nM | – | –
12 | Cc1nn(C)c(C)c1CCOc1cc(F)ccc1-c1cccc(N2CCNCC2)c1 [Compound 12f, 1-(4′-fluoro-2′-(2-(1,3,5-trimethyl-1H-pyrazol-4-yl)ethoxy)-[1,1′-biphenyl]-3-yl)piperazine] | 15.9 nM | – | SI** (PvNMT; [1]): 43.9; IC50 (HsNMT1; [2]): 699 nM
13 | Cc1nn(C)c(C)c1CCOc1ccccc1-c1cc(N2CCNCC2)ncn1 [Compound 16a, 4-(piperazin-1-yl)-6-(2-(2-(1,3,5-trimethyl-1H-pyrazol-4-yl)ethoxy)phenyl)pyrimidine] | 9390 nM | – | –
14 | Cc1nn(C)c(C)c1CCOc1cccnc1-c1ccnc(N2CCNCC2)c1 [Compound 12a, 2′-(piperazin-1-yl)-3-(2-(1,3,5-trimethyl-1H-pyrazol-4-yl)ethoxy)-2,4′-bipyridine] | 36.8 nM | – | SI** (PvNMT; [1]): 146.7; IC50 (HsNMT1; [2]): 5400 nM
15 | Fc1ccc(-c2cccc(N3CCNCC3)c2)c(OCCc2cccnc2)c1 [Compound 12k, 1-(4′-fluoro-2′-(2-(pyridin-3-yl)ethoxy)-[1,1′-biphenyl]-3-yl)piperazine] | 3120 nM | – | –
16 | Cc1nn(C)c(C)c1CCOc1cc(F)ccc1-c1ccnc(N2CCNCC2)c1 [Compound 12e, 1-(4-(4-fluoro-2-(2-(1,3,5-trimethyl-1H-pyrazol-4-yl)ethoxy)phenyl)pyridin-2-yl)piperazine] | 15.8 nM | – | SI** (PvNMT; [1]): 7.8; IC50 (HsNMT1; [2]): 124 nM
17 | Cc1nn(C)c(C)c1CCOc1cccnc1-c1cccc(N2CCNCC2)c1 [Compound 12b, 1-(3-(3-(2-(1,3,5-trimethyl-1H-pyrazol-4-yl)ethoxy)pyridin-2-yl)phenyl)piperazine] | 80.2 nM | – | IC50 (HsNMT1; [2]): 20800 nM
18 | c1cncc(CCOc2ccccc2-c2cccc(N3CCNCC3)c2)c1 [Compound 12i, 1-(2′-(2-(pyridin-3-yl)ethoxy)-[1,1′-biphenyl]-3-yl)piperazine] | 1540 nM | – | –
19 | 3-(2′-(3,5-dimethyl-1H-pyrazol-4-yl)ethoxy-4′-fluoro-[1,1′-biphenyl]-3-yl)piperazine [Compound 12p] | 368 nM | – | SI** (PvNMT; [1]): 62.7; IC50 (HsNMT1; [2]): 23100 nM
20 | Cc1nn(C)c(C)c1CCOc1ccccc1-c1cccc(OCCN(C)C)c1 [Compound 26b, N,N-dimethyl-2-((2′-(2-(1,3,5-trimethyl-1H-pyrazol-4-yl)ethoxy)-[1,1′-biphenyl]-3-yl)oxy)-ethan-1-amine] | – | 83.2 nM | SI** (PvNMT; Table 2, HsNMT IC50/PvNMT IC50): 118.4; IC50 (HsNMT1; Table 2): 9850 nM
21 | Cc1n[nH]c(C)c1CCOc1cc(F)ccc1-c1cc(N2CCNCC2)ncn1 [Compound 16e, 4-(2-(2-(3,5-dimethyl-1H-pyrazol-4-yl)ethoxy)-4-fluorophenyl)-6-(piperazin-1-yl)pyrimidine] | 5070 nM | – | –
22 | Cc1n[nH]c(C)c1CCOc1cc(F)ccc1-c1cccc(OCCN(C)C)c1 [Compound 26i, 2-((2′-(2-(3,5-dimethyl-1H-pyrazol-4-yl)ethoxy)-4′-fluoro-[1,1′-biphenyl]-3-yl)oxy)-N,N-dimethylethan-1-amine] | – | 242 nM | SI** (PvNMT; Table 2, HsNMT IC50/PvNMT IC50): 57; IC50 (HsNMT1; Table 2): 13900 nM
23 | CN(C)CCOc1cccc(-c2ncccc2OCCc2cccnc2)c1 [Compound 26d, N,N-dimethyl-2-(3-(3-(2-(pyridin-3-yl)ethoxy)pyridin-2-yl)phenoxy)ethan-1-amine] | – | 14800 nM | –
24 | Cc1n[nH]c(C)c1CCOc1ccc2ccccc2c1-c1cccc(OCCN(C)C)c1 [Compound 30f, 2-(3-(2-(2-(3,5-dimethyl-1H-pyrazol-4-yl)ethoxy)naphthalen-1-yl)phenoxy)-N,N-dimethylethan-1-amine] | – | 25400 nM | –
25 | Cc1n[nH]c(C)c1CCOc1ccccc1-c1cc(N2CCNCC2)ncn1 [Compound 16f, 4-(2-(2-(3,5-dimethyl-1H-pyrazol-4-yl)ethoxy)phenyl)-6-(piperazin-1-yl)pyrimidine] | 14000 nM | – | –
26 | Fc1ccc(-c2cc(N3CCNCC3)ncn2)c(OCCc2cccnc2)c1 [Compound 16d, 4-(4-fluoro-2-(2-(pyridine-3-yl)ethoxy)phenyl)-6-(piperazin-1-yl)pyrimidine] | 3390 nM | – | –
27 | Cc1n[nH]c(C)c1CCOc1ccccc1-c1cccc(OCCN(C)C)c1 [Compound 26h, 2-((2′-(2-(3,5-dimethyl-1H-pyrazol-4-yl)ethoxy)-[1,1′-biphenyl]-3-yl)oxy)-N,N-dimethylethan-1-amine] | – | 1560 nM | –
28 | Cc1n[nH]c(C)c1CCOc1cccnc1-c1ccnc(N2CCNCC2)c1 [Compound 12o] | 3120 nM | – | –
